# Laboratory results: patent publication US20040219201A1, “Tempamine compositions and methods of use” (priority 2001, published 2004)
# Where two headings read alike, the source gives them in different places.
# Experiments:
# [1] = system: MCF-7 (human breast adenocarcinoma); assay: Cytotoxicity assay (methylene blue); nitroxides alone or doxorubicin plus tempamine; type: cell-based; conditions: for IC50: Homo sapiens
# Protocol: (§1) As described in Example 1, the cytotoxicity of tempamine was determined on three cell lines, MCF-7 (human breast adenocarcinoma), M-109S (doxorubicin-sensitive human breast carcinoma), and M-109R (doxorubicin-resistant human breast carcinoma). The effect of free tempamine on cell proliferation was determined by a methylene blue assay as described in Example 1B.
# FIG. 4 is a plot comparing the percent survival of MCF-7 human breast carcinoma cells at various doses of tempamine (closed circles) and tempol (open circles) in vitro. The cells were analyzed after 72 hours of exposure to the nitroxides. Tempamine and tempol cell growth inhibitory activities were of similar magnitude.
# (§2) In yet another aspect, the invention contemplates administration of tempamine in combination with chemotherapeutic agent. […] Doxorubicin was chosen as a model chemotherpeutic agent. The enhancement of doxorubicin cytotoxicity by tempamine was tested on three cell lines, as described in Example 1A. A cytotoxicity assay as described in Example 1B was used. Two of the cell lines, MCF-7 and M-109S, were doxorubicin-sensitive lines and one cell line, M-109R, was doxorubicin resistant. MCF-7 cells are more sensitive to tempamine (100 μM caused 75% growth inhibition), but are less sensitive to doxorubicin, than are M-109S cells.
# (§3) MCF-7 (human breast adenocarcinoma), M-109S (doxorubicin-sensitive human breast carcinoma), and M-109R (doxorubicin-resistant human breast carcinoma) were maintained in RPMI medium (Biological Industries, Beit HaEmek, Israel) supplemented with 10% fetal calf serum (FCS). The cell lines were maintained under standard culture conditions at 37° C. in a humidified 5% CO2 atmosphere.
# (§4) The effect of tempamine on cell proliferation was determined by the methylene blue assay (Horowitz, A. T., et al., Biochim BiophysActa. 1109:203, (1992)). Briefly, cells were seeded onto 96-well plates (MCF cells at a density of 6×10^3 cells per well, and M-109S and M-109R at a density of 1.5×10^3 cells per well) and allowed to grow for 24 hours prior to treatment with different concentrations of tempamine. After the addition of tempamine (5×10^−5 to 4×10^−4), the cells were incubated in RPMI +10% FCS for four days without change of medium. Then the cells were fixed with 2.5% glutaraldehyde, stained with methylene blue and assayed spectrophotometrically.
# [2] = system: M-109S (doxorubicin-sensitive human breast carcinoma); assay: Cytotoxicity assay (methylene blue); tempamine alone or doxorubicin plus tempamine; type: cell-based; conditions: M-109S; for IC50: Homo sapiens
# Protocol: as §1, §2, §3, §4
# [3] = Samuni et al. 1997; cited from earlier work
smiles,measurement,setting,value
COc1cccc2c1C(=O)c1c(O)c3c(c(O)c1C2=O)C[C@@](O)(C(=O)CO)C[C@@H]3O[C@H]1C[C@H](N)[C@H](O)[C@H](C)O1 [doxorubicin],IC50,"[1]; MCF7, read-out: IC50 of Doxorubicin (nM) in the presence of 200 μM tempamine, MCF-7",55 ± 4.1 nM
same,IC50,"[1]; MCF7, MCF-7, read-out: IC50 of Doxorubicin (nM) in the presence of 0 μM tempamine",487 ± 32 nM
same,IC50,"[1]; MCF7, MCF-7, read-out: IC50 of Doxorubicin (nM) in the presence of 50 μM tempamine",475 ± 38 nM
same,IC50,"[1]; MCF7, MCF-7, read-out: IC50 of Doxorubicin (nM) in the presence of 100 μM tempamine",67 ± 5.8 nM
same,change of IC50 value of doxorubicin,"[1]; MCF-7, in the presence of 100 μM TMN",decreased by one order of magnitude
same,IC50,[2]; read-out: IC50 of Doxorubicin (nM) in the presence of 200 μM tempamine,18 ± 1.1 nM
same,IC50,[2]; read-out: IC50 of Doxorubicin (nM) in the presence of 0 μM tempamine,60 ± 4 nM
same,IC50,[2]; read-out: IC50 of Doxorubicin (nM) in the presence of 100 μM tempamine,27 ± 1.7 nM
same,observed IC50 of doxorubicin decreased to,[2]; addition of 100-200 μM tempamine,50%
CC1(C)CCCC(C)(C)N1[O] [TEMPO],affinity to n-octanol versus aqueous phase,[3],much higher affinity to n-octanol than to the aqueous phase
CC1(C)CC(O)CC(C)(C)N1[O] [tempol],IC50,"[1]; MCF7, 72 h, read-out: IC50 (cell growth inhibition)",320000 nM
same,affinity to n-octanol versus aqueous phase,[3],much higher affinity to n-octanol than to the aqueous phase
